Assay results taken from ChEMBL document CHEMBL1201862, “PubChem BioAssay data set” (2004).
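Test compounds were applied to cells in 96-well plates for 48 hours at 5 doses. Abbreviation: GI50, concentration required for 50% inhibition of growth.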 Active and inactive are the calls of the source. Rule as the data show it: active = GI50 up to about 1.1 µM and inactive = higher.

Key:
Assay in all cases: NCI anticancer screen, dose series, 48 h
[1] = system: MDA-N
[2] = system: SK-MEL-2
[3] = system: SK-MEL-28
[4] = system: SNB-75
[5] = system: SK-OV-3
[6] = system: IGROV-1
[7] = system: A498
[8] = system: OVCAR-3
[9] = system: SK-MEL-5
[10] = system: NCI-H226
[11] = system: HOP-92
[12] = system: EKVX
[13] = system: ACHN
[14] = system: UACC-257
[15] = system: 786-0
[16] = system: UO-31
[17] = system: MOLT-4
[18] = system: SW-620
[19] = system: LOX IMVI
[20] = system: RPMI-8226

Row | Compound | GI50 [1] | GI50 [2] | GI50 [3] | GI50 [4] | GI50 [5] | GI50 [6] | GI50 [7] | GI50 [8] | GI50 [9] | GI50 [10] | GI50 [11] | GI50 [12] | GI50 [13] | GI50 [14] | GI50 [15] | GI50 [16] | GI50 [17] | GI50 [18] | GI50 [19] | GI50 [20]
1 | C1CNOCCCONCCCNOCCCONC1 | > 100 µM (inactive) | 25.1 µM (inactive) | > 100 µM (inactive) | > 100 µM (inactive) | 37.1 µM (inactive) | 56.1 µM (inactive) | 42.5 µM (inactive) | 62.2 µM (inactive) | > 100 µM (inactive) | > 100 µM (inactive) | 26.1 µM (inactive) | 50.2 µM (inactive) | > 100 µM (inactive) | 41.7 µM (inactive) | > 100 µM (inactive) | > 100 µM (inactive) | > 100 µM (inactive) | > 100 µM (inactive) | > 100 µM (inactive) | 
2 | COc1cc2c3c(c1Oc1nnnn1-c1ccccc1)-c1c(ccc4c1OCO4)C[C@H]3N(C)CC2 | 21.9 µM (inactive) | 71.9 µM (inactive) | 17.8 µM (inactive) | 22.6 µM (inactive) | 72.9 µM (inactive) | 41.6 µM (inactive) |  | 37.4 µM (inactive) | 29.5 µM (inactive) | > 100 µM (inactive) | 24.4 µM (inactive) | 32.4 µM (inactive) | 25.7 µM (inactive) | 20.5 µM (inactive) | 17.5 µM (inactive) | 78.9 µM (inactive) | 35.7 µM (inactive) | 80.7 µM (inactive) | 29 µM (inactive) | 32.5 µM (inactive)
3 | O=C(Nc1cccc(C(F)(F)F)c1)O/N=C(/Cl)CCl | 71.8 µM (inactive) | 67.6 µM (inactive) | 41.5 µM (inactive) | > 100 µM (inactive) | > 100 µM (inactive) | 62.4 µM (inactive) | > 100 µM (inactive) | 38.9 µM (inactive) | 40.7 µM (inactive) |  | 22 µM (inactive) | > 100 µM (inactive) | > 100 µM (inactive) | > 100 µM (inactive) | 40.5 µM (inactive) | > 100 µM (inactive) | 28.2 µM (inactive) | 38.5 µM (inactive) | 19 µM (inactive) | 27 µM (inactive)
4 | CCOC(=O)/C=C/CCC(C)(C)COC(C)=O | > 10 µM (inactive) | > 10 µM (inactive) | > 10 µM (inactive) | > 10 µM (inactive) | > 10 µM (inactive) | > 10 µM (inactive) |  | > 10 µM (inactive) | > 10 µM (inactive) | > 10 µM (inactive) | > 10 µM (inactive) | > 10 µM (inactive) | > 10 µM (inactive) | > 10 µM (inactive) | > 10 µM (inactive) | > 10 µM (inactive) | > 10 µM (inactive) | > 10 µM (inactive) | > 10 µM (inactive) | > 10 µM (inactive)
5 | ClCc1nc2cc(Cl)ccc2o1 | 5.71 µM (inactive) | 5.78 µM (inactive) | 4.44 µM (inactive) | 10.9 µM (inactive) | 14.8 µM (inactive) | 1.61 µM (inactive) |  | 1.85 µM (inactive) | 11.9 µM (inactive) | 15.9 µM (inactive) | 1.91 µM (inactive) | 3.75 µM (inactive) | 1.72 µM (inactive) | 9.16 µM (inactive) | 1.67 µM (inactive) | 1.02 µM (active) | 2.19 µM (inactive) | 3.49 µM (inactive) | 2.44 µM (inactive) | 1.42 µM (inactive)
6 | CC(C)CCC[C@@H](C)[C@H]1CC[C@H]2[C@@H]3CC[C@H]4C[C@H](N)CC[C@]4(C)[C@H]3CC[C@]12C | 30.9 µM (inactive) |  | 28.3 µM (inactive) | 18.5 µM (inactive) | 22.6 µM (inactive) | 11.3 µM (inactive) | 22.2 µM (inactive) | 26.6 µM (inactive) | 21.5 µM (inactive) | 17.3 µM (inactive) | 11.7 µM (inactive) | 17.7 µM (inactive) | 17.5 µM (inactive) | 19 µM (inactive) | 20.4 µM (inactive) | 13.5 µM (inactive) | 11.3 µM (inactive) | 31.6 µM (inactive) | 21.3 µM (inactive) | 20.7 µM (inactive)
7 | COC1OC(C(=O)O)C2OC(C)(C)OC12 (centres undefined) | > 100 µM (inactive) | > 100 µM (inactive) | > 100 µM (inactive) | > 100 µM (inactive) | > 100 µM (inactive) | > 100 µM (inactive) |  | > 100 µM (inactive) | > 100 µM (inactive) | > 100 µM (inactive) | > 100 µM (inactive) | > 100 µM (inactive) | > 100 µM (inactive) | > 100 µM (inactive) | > 100 µM (inactive) | > 100 µM (inactive) | > 100 µM (inactive) | > 100 µM (inactive) | > 100 µM (inactive) | > 100 µM (inactive)
8 | N#CCc1nc(C#N)c(N)o1 | > 100 µM (inactive) | > 100 µM (inactive) | > 100 µM (inactive) |  | > 100 µM (inactive) | > 100 µM (inactive) | > 100 µM (inactive) | > 100 µM (inactive) |  | > 100 µM (inactive) | > 100 µM (inactive) |  | > 100 µM (inactive) | > 100 µM (inactive) | > 100 µM (inactive) | > 100 µM (inactive) | > 100 µM (inactive) | > 100 µM (inactive) |  | 
9 | C=C[C@H]1CN2CC[C@H]1C[C@@H]2[C@@H](O)c1ccnc2ccccc12 [CINCHONINE] | > 100 µM (inactive) | > 100 µM (inactive) | > 100 µM (inactive) | 22.8 µM (inactive) | > 100 µM (inactive) | 19.6 µM (inactive) | 63 µM (inactive) | > 100 µM (inactive) | > 100 µM (inactive) | > 100 µM (inactive) |  | 73.3 µM (inactive) | > 100 µM (inactive) | > 100 µM (inactive) | > 100 µM (inactive) | 52.7 µM (inactive) | > 100 µM (inactive) | > 100 µM (inactive) | 5.4 µM (inactive) | 22.9 µM (inactive)
10 | CN(C)c1ccc(/C=C2\N=C(NNc3ccccc3)NC2=O)cc1 | 27.7 µM (inactive) | 18.7 µM (inactive) | 29.1 µM (inactive) | 25.5 µM (inactive) | 27.5 µM (inactive) | 23.4 µM (inactive) | 17.1 µM (inactive) | 16 µM (inactive) |  |  | 17.3 µM (inactive) | 19 µM (inactive) | 20.2 µM (inactive) | 15.6 µM (inactive) | 17.9 µM (inactive) | 31 µM (inactive) | < 0.01 µM (active) | 26.8 µM (inactive) | 27.8 µM (inactive) | 16 µM (inactive)
11 | Cc1c(O)c(OC2OC(CO)C(O)C(O)C2O)cc2c1C=C[C@@H]1[C@@]2(C)C(=O)C[C@]2(C)[C@@H]([C@@](C)(O)C(=O)CCC(C)(C)O)[C@H](O)C[C@@]12C (some centres undefined) | 27.9 µM (inactive) | 26.2 µM (inactive) | 21.1 µM (inactive) | 25.1 µM (inactive) | 15.7 µM (inactive) | 19.7 µM (inactive) | 19.5 µM (inactive) | 22.6 µM (inactive) | 23 µM (inactive) | 23.3 µM (inactive) | 18.4 µM (inactive) | 28.6 µM (inactive) | 19.6 µM (inactive) | 20.9 µM (inactive) | 25.2 µM (inactive) | 20.2 µM (inactive) | 19.7 µM (inactive) | 29 µM (inactive) | 22.6 µM (inactive) | 
12 | Cc1ccc(/N=C2\SC(=S)N(CCC[N+](C)(C)C)\C2=N/c2ccc(C)cc2)cc1 | 12.8 µM (inactive) | 11 µM (inactive) | 7.64 µM (inactive) | 2.94 µM (inactive) |  | 10.1 µM (inactive) | 17.2 µM (inactive) |  | 10.9 µM (inactive) | 21.7 µM (inactive) | 14.2 µM (inactive) | 17 µM (inactive) | 13.2 µM (inactive) | 12 µM (inactive) | 14.1 µM (inactive) | 18.5 µM (inactive) | 10.1 µM (inactive) | 20.7 µM (inactive) |  | 6.01 µM (inactive)
13 | C/C=C(/C)C(=O)O[C@H](C[C@@H](C)[C@H]1CC(c2ccoc2)OC1=O)[C@@]1(C)C(=O)CCC2O[C@]21C (some centres undefined) | > 100 µM (inactive) | > 100 µM (inactive) | > 100 µM (inactive) | > 100 µM (inactive) | > 100 µM (inactive) | > 100 µM (inactive) | > 100 µM (inactive) | > 100 µM (inactive) | > 100 µM (inactive) | > 100 µM (inactive) |  | > 100 µM (inactive) | > 100 µM (inactive) | > 100 µM (inactive) | > 100 µM (inactive) | > 100 µM (inactive) | > 100 µM (inactive) | > 100 µM (inactive) | > 100 µM (inactive) | > 100 µM (inactive)
14 | O=c1[nH]c(=S)c2cc3c(=S)[nH]c(=O)n(CCC(c4ccccc4)(c4ccccc4)c4ccccc4)c3nc2n1CCC(c1ccccc1)(c1ccccc1)c1ccccc1 | > 100 µM (inactive) | > 100 µM (inactive) | > 100 µM (inactive) | > 100 µM (inactive) | > 100 µM (inactive) |  | > 100 µM (inactive) | > 100 µM (inactive) | > 100 µM (inactive) | > 100 µM (inactive) | > 100 µM (inactive) | > 100 µM (inactive) | > 100 µM (inactive) | > 100 µM (inactive) | > 100 µM (inactive) | > 100 µM (inactive) | 15.4 µM (inactive) |  |  | > 100 µM (inactive)
15 | COc1ccccc1N1C(=O)/C(=C\c2cccc(Oc3ccccc3)c2)S(=O)(=O)C1c1ccccc1 (centres undefined) | 36.4 µM (inactive) | 21.4 µM (inactive) | 71.1 µM (inactive) |  | > 100 µM (inactive) |  | 49.8 µM (inactive) | 38.7 µM (inactive) | 21.5 µM (inactive) | > 100 µM (inactive) | 14.5 µM (inactive) | 10.5 µM (inactive) | > 100 µM (inactive) | 21.7 µM (inactive) | 49.4 µM (inactive) | 46.8 µM (inactive) | 4.92 µM (inactive) | 49.3 µM (inactive) | 40.1 µM (inactive) | 
